For the experiment, the target named is T1, 5-HT3 receptor (Rattus norvegicus, UniProt P35563).
T1 construct: Wistar strain male rats of 9 week age were anesthesized; from tissue; host or cells: whole anesthetized Wistar rat in vivo (endogenous receptor; cardiac vagal afferents by own knowledge)
T1 sequence (P35563 24-483): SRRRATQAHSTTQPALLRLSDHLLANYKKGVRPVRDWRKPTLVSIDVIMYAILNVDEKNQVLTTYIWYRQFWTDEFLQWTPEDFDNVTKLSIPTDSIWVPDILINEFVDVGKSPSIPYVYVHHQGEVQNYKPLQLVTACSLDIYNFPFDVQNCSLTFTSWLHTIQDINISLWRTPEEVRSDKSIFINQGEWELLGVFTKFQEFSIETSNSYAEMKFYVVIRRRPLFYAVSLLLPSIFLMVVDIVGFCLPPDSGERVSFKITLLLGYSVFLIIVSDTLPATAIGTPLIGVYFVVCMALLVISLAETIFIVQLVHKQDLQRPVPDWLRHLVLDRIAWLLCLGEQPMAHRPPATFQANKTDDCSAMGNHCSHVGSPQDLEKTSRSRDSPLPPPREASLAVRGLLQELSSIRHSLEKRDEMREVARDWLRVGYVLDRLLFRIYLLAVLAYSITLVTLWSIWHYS
The experiment is described as follows: Inhibition of serotonin- or 2-methylserotonin-induced Bezold-Jarisch (BJ) reflex in anesthetized rats (5-HT3-antagonizing activity). The class given is in vivo, Wistar strain male rats. Conditions: serotonin-induced BJ reflex in rats, read-out: BJ Reflex Inhibitory Activity (ED50). Here is the method:
Wistar strain male rats of 9 week age were anesthesized with intraperitoneally administering 1 g/kg of urethane. Under artificial respiration, blood pressure and heart rate were measured. Transient reduction in heart rate and in blood pressure induced by intravenous administration of serotonin or 2-methylserotonin which is a selective agonist of 5-HT3 was used as an index for the reaction via 5-HT3 receptor (Bezold-Jarisch reflex : Paintal, A.S., Physiol. Rev., 53, 159, 1973).
Inhibitory activity of the compounds of the present invention on serotonin-induced Bezold-Jarisch (BJ) reflex in rats is shown in the table below.

Counter-ions that a name gives are not always drawn. Like-named read-outs stand apart in the source and are kept apart here.

Usually ED50 stands for the dose at which the effect has come halfway, by size or by number of responders. Consider `CCOc1ccccc1NC(=O)C1CCc2nc[nH]c2C1.O=C(O)/C=C/C(=O)O` (stereo not shown) [Example 13, N-(2-Ethoxyphenyl)-4,5,6,7-tetrahydrobenzimidazole-5-carboxamide fumarate], for which the ED50 is, setting by setting: (iv) 1.2 µg/kg; (po) 6.6 µg/kg.

Turning to `COc1ccccc1NC(=O)C1CCc2[nH]cnc2C1` (racemic) [Example 1, N-(2-methyloxyphenyl) -4,5,6,7-tetrahydrobenzimidazole-5carboxamide fumarate 0.8hydrate], the 50% effective dose (ED50) (iv) was 0.32 µg/kg and the ED50 (po) was determined as 5.9 µg/kg.

(Values after patent US4977175A, “4,5,6,7-tetrahydrobenzimidazole derivatives as 5HT3 -antagonists” (Yamanouchi Pharmaceutical Co., Ltd., priority 1988, dated 1990).)
